The test system of one data set is DNMT1. The data set is described as follows: DNMT1 protein levels by western blot in drug-treated KG1a cells. In kind it is cell-based, human. On the procedure: Cells were incubated with drugs for the indicated times and analyzed by western blot. (*ns indicates a non-specific band used as a loading control).
In the next data set the test system is CEM leukemia cells. As to the kind of experiment: Incorporation of [5-3H]-labelled compound into DNA of CEM leukemia cells (FIG. 2). In kind it is cell-based, human. The following applies: 100 nM of [5-3H]-labelled compound. On the procedure: (§1) In particular, FIG. 2 refers to an experiment where CEM leukemia cells were incubated with 100 nM of [5-^3H]T-dCyd, [5-^3H]dCyd, [5-^3H]araC or [5-^3H]T-araC and the incorporation of compound into the DNA was determined. […] In contrast much less araC (or T-araC) was incorporated into the DNA. Although araCTP (or T araCTP) are also good substrates for DNA polymerases, they are known to inhibit subsequent DNA chain elongation and thereby inhibit DNA replication. […] The concentration of T-dCyd or araC required to inhibit CEM cell growth by 50% after 72 hours of incubation was 2.2 or 0.006 μM, respectively.

Another data set has as its system CEM cells. The data set is described as follows: Metabolism of dCyd or T-dCyd in CEM cells. In kind it is in vitro ADME, human. The note with it: 100 nM, 1 hour. On the procedure: The metabolites that were produced in CEM cells treated with either [5-^3H]dCyd or [5-^3H]T-dCyd were also determined (Table 1). Cells were treated with 100 nM of each compound for 1 hour and the medium and cells were extracted to determine the major metabolites that were formed. The medium was analyzed by reverse phase HPLC to measure the parent compound, deaminated product, or [^3H]-water. The acid-soluble extract was analyzed by strong anion exchange HPLC to measure the intracellular concentration of nucleotide metabolites. The radioactivity in the acid-insoluble fraction represents the amount of compound that was incorporated into DNA. […] (Note: Because dCyd was labeled at the 5 position, the [^3H] was removed from the molecule by thymidylate synthase in the process of adding a methyl group to this position. Accordingly, there will be no radioactivity in thymidine nucleotides generated from [5-^3H]dCyd).

The next data set concerns CEM cell. The data set is described as follows: Inhibition of CEM cell growth. The format is cell-based, human. The note with it: after 72 hours of incubation, read-out: concentration required to inhibit CEM cell growth by 50%. On the procedure:
as §1

The subject of data set [1] is KG1a human myeloid leukemia cells. The data set is described as follows: Incorporation into DNA in KG1a human myeloid leukemia cells (FIG. 3). The format is cell-based. The following applies: 300 nM, 4 h of incubation.
The subject of a further data set is human lung NCI-H23. The data set is described as follows: Anti-tumor activity against human lung NCI-H23 tumor xenografts in mice (FIG. 5). The format is in vivo. Here is the method: (§2) Preliminary in vivo evaluation of the anti-tumor activity of T-dCyd and 5-aza-T-dCyd in mice was also conducted (FIG. 5 and FIG. 6). T-dCyd was tested against human lung NCI-H23 (FIG. 5), and also in DLD-1 colon tumor xenografts (not shown). […] However the 9-day treatment schedule is a classical schedule for a cytotoxic anticancer agent. T-dCyd as a potential DNA hypomethylating agent has not been evaluated in tumor models.

A short description of data set [2]: Maximum tolerated dose (MTD) in mice. The note with it: mouse, in vivo. Here is the method:
as §2

A short description of data set [3]: Stability in phosphate buffered saline by reverse phase HPLC (FIG. 4). The note with it: PBS pH 7.4, 100 μM; for half-life at 100 μM: phosphate buffered saline, samples at 2, 20 and 90 hours. The format is physicochemical. Here is the method: One of the primary problems of the currently clinically used DNA hypomethylators 5-aza-dCyd and 5-azacytidine is the rapid degradation of these compounds by ring opening of the 5-azacytosine ring in aqueous solutions. Whether a 4′-thio modification would enhance the stability of 5-azacytosine relative to the 4′-oxonucleoside was tested (FIG. 4). In side-by-side experiments, the compounds were dissolved in PBS (phosphate buffered solution, pH 7.4) at a concentration of 100 μM. A sample was removed from each solution 2, 20, and 90 hours after addition of the drug and the concentrations of 5-aza-T-dCyd or 5-aza-dCyd were determined by reverse phase HPLC.

Another data set relates to tumors. The data set is described as follows: Anti-tumor activity of 5-aza-T-dCyd in in vivo tumor model (FIG. 6). The following applies: mice, q1dx9; tumor size decreased several days after end of dosing. On the procedure: as §2
Again, the schedule in this experiment (q1dx9) was also not designed based on the supposed mechanism of action of this agent, but was designed based on a classical cytotoxic nucleoside analog, as in the case of T-dCyd. […] This type of compound might best be used in combination with other chemotherapy as a maintenance therapy. Thus, in the clinic one could envision treatment first with cytotoxic agents to kill a large percentage of rapidly dividing tumor cells, followed by treatment with non-toxic doses of hypomethylating agents for longer time periods. In a similar vein one could envisage treatment with non-toxic DNA hypomethylating agents in chemoprevention settings.

Where [4] appears, read: similar experiments, FIG. 1B or not shown.
Setting [5] is: 1.3 mg/kg (MTD0.65), 9 day treatment, NCI-H23 tumors in mice.

The structures appear in SMILES notation. pIC50: −log10 of the molar value. Where two headings read alike, the source gives them in different places.

Turning to `Nc1ccn([C@@H]2S[C@H](CO)[C@@H](O)[C@@H]2O)c(=O)n1` [T-araC, 4′-thio-arabinofuranosylcytosine, reference compound], the “effect on DNMT1 protein level” value in the data set on DNMT1 (setting [4]) was “did not deplete DNMT1”. Further, the “incorporation of compound into the DNA” value with CEM leukemia cells is given as “much less”.

Turning to `Nc1ccn([C@H]2C[C@H](O)[C@@H](CO)O2)c(=O)n1` [dCyd, 2′-deoxycytidine, reference compound], in the data set with CEM cells, the “[3H] in DNA” value is 3% of total and the “[3H] in parent compound” value is listed as 38% of total.

In the case of `Nc1ccn([C@H]2C[C@H](O)[C@@H](CO)S2)c(=O)n1` [T-dCyd, 4′-thio-2′-deoxycytidine], the “effect on DNMT1 protein level” value in the data set on DNMT1 (72 h at the 3 μM dose, FIG. 1D) was “complete depletion of DNMT1”. The “effect on DNMT1 protein level” value in the data set with DNMT1 (72 hour exposure at low non-toxic doses, FIG. 1A) is listed as “capable of reducing DNMT1”. Moreover, in the data set with DNMT1 (96 h at the 1 and 3 μM doses, FIG. 1D), the “effect on DNMT1 protein level” value is “complete depletion of DNMT1”. Further, the “incorporation of compound into the DNA” value with CEM leukemia cells is listed as “more T-dCyd was incorporated into the DNA than dCyd”. Moreover, in the data set with CEM cell (Homo sapiens, CCRF-CEM), the pIC50 is 5.66. Besides, the “incorporation into DNA” value in [1] was “rapidly incorporated to very high levels”. In the data set on CEM cells, the “[3H] in DNA” value is given as 8% of total; the “[3H] in parent compound” value is given as 90% of total; the “radioactivity recovered as water in the medium, T-dUrd in the medium, or T-dUMP in the acid-soluble pool” value is “none”. For the same compound, in the data set on human lung NCI-H23 (0.9 mg/kg (MTD0.45) and 0.6 mg/kg (MTD0.3), 9 day treatment schedule), the “in vivo anti-tumor activity” value is “some encouraging in vivo activity”. In the data set on human lung NCI-H23 (setting [5]), the complete cures is 2/6 and the tumor growth inhibition result is “substantial growth inhibition”. For the same compound, the MTD at 9 day in data set [2] is 2 mg/kg.

Consider `Nc1ncn([C@H]2C[C@H](O)[C@@H](CO)S2)c(=O)n1` [5-aza-T-dCyd, 5-aza-4′-thio-2′-deoxycytidine], for which the “effect on DNMT1 protein level” value in the data set on DNMT1 (doses as low as 0.1 μM, exposed for 72 or 96 h, FIG. 1E) is listed as “complete depletion of DNMT1”. Besides, the “effect on DNMT1 protein level” value with DNMT1 (similar exposures for as little as 48 h, FIG. 1C) is listed as “completely depleted DNMT1”. Besides, in [3], the “stability in PBS relative to 5-aza-dCyd” value is reported as 5 fold and the half-life at 100 μM is 293 h. In the data set on tumors, the tumor growth inhibition entry is given as “substantially inhibited the growth of the tumors”.

In the case of `Nc1ccn([C@@H]2O[C@H](CO)[C@@H](O)[C@@H]2O)c(=O)n1` [araC, arabinofuranosylcytosine, reference compound], the “effect on DNMT1 protein level” value in the data set with DNMT1 (setting [4]) was “did not deplete DNMT1”. Besides, the “incorporation of compound into the DNA” value in the data set on CEM leukemia cells was “much less”. Besides, in the data set on CEM cell, the pIC50 was 8.22.

In the case of `Nc1ncn([C@H]2C[C@H](O)[C@@H](CO)O2)c(=O)n1` [5-azadCyd, 5-aza-2′-deoxycytidine, reference compound], in the data set on DNMT1 (setting [4]), the “effect on DNMT1 protein level” value is listed as “depleting DNMT1”. Also, in data set [1], the “incorporation into DNA” value is “only a moderate amount”. Further, the half-life at 100 μM in [3] is 67 h.
